Seven compounds from patent US20250353891A1 (MEDIMMUNE LIMITED, priority 2022, published 2025) can be followed below.

Starred links: 1 amine or outer side, 2 acyl side, 3 side chain; linkers in the order of their positions; H or OH if unused. Non-standard residues stand in square brackets, D forms with d. Residues, ends and D or L forms follow the SMILES beside them. Groups on a side chain read outwards from the residue. *: point of attachment. C20 diacid = O=C(O)CCCCCCCCCCCCCCCCCCC(=O)*; C18 diacid = O=C(O)CCCCCCCCCCCCCCCCC(=O)*; γGlu = O=C(O)[C@H](CCC(=O)[*:2])N[*:1]; αMeF = C[C@](N)(Cc1ccccc1)C(=O)O; PEG4 = NCCOCCOCCOCCOCCC(=O)O; PEG2 = NCCOCCOCCC(=O)O; AEEA = NCCOCCOCC(=O)O; Aib = CC(C)(N)C(=O)O

In test [1] the target is human glucagon receptor (hGCGR) (Homo sapiens, UniProt P47871). Put plainly: cAMP production (HTRF) in CHO cells expressing hGCGR. The class given is cell-based. Set-up: expressed in transfected cells. The conditions noted are these: Table 7, peptides modified at position 20; cAMP in CHO hGCGR cells; geometric mean; read-out: hGluc-R EC50. The method, boiled down:
(§1)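 Cells were resuspended in assay buffer at batch-optimized density, typically 1×10^5 cells/mL for hGLP-1R and 2×10^5 cells/mL for hGCGR. After 30 min incubation at room temperature with compound, cAMP was measured by two-step HTRF. EC50 values came from 4-parameter logistic fits of % Delta F.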
For orientation: cAMP levels reflect the balance of adenylyl cyclase and phosphodiesterase activity.

The target in test [2] is human GLP-1 receptor (hGLP-1R) (Homo sapiens, UniProt P43220). Put plainly: cAMP production (HTRF) in CHO cells expressing hGLP-1R. It counts as cell-based. The arrangement: expressed in transfected cells. The conditions noted are these: for EC50: Table 7, peptides modified at position 20, cAMP in CHO hGLP-1R cells, geometric mean, read-out: hGLP-1R EC50; for % Relative Potency Ratio: Table 7, % GLP-1R activity relative to GLP-1 / % GlucR activity relative to glucagon. The gist of the method:
as §1

Usually EC50 stands for the concentration giving half of the maximal effect.

human GLP-1 receptor (hGLP-1R), sequence (P43220 24-463): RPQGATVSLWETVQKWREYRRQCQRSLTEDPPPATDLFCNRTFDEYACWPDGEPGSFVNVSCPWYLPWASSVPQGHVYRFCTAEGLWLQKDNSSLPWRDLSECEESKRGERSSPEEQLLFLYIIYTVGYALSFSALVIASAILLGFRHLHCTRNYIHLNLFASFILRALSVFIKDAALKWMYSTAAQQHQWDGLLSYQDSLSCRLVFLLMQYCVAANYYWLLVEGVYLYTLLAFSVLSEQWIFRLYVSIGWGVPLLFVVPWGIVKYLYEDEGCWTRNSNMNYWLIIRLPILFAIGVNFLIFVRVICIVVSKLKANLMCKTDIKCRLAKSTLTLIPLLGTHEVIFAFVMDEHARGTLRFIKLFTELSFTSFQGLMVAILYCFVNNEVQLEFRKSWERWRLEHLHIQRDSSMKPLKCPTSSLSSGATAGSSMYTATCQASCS
human glucagon receptor (hGCGR), sequence (P47871 26-477): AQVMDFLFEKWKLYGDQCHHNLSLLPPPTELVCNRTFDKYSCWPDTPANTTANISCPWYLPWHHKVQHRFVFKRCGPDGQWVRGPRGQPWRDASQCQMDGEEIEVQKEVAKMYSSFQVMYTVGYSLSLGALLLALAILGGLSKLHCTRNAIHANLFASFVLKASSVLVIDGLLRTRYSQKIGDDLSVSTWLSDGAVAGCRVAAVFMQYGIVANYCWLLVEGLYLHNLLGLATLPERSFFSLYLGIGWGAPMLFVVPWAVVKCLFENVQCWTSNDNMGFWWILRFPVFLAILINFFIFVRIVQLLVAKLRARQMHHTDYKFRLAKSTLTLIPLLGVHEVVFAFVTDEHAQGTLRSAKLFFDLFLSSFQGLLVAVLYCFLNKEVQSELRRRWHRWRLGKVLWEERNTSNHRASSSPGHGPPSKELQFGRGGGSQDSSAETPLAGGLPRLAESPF

On to `CC[C@H](C)[C@H](NC(=O)C(C)(C)NC(=O)[C@H](CCC(N)=O)NC(=O)[C@@H](NC(=O)[C@](C)(Cc1ccccc1)NC(=O)[C@H](CC(=O)O)NC(=O)[C@H](CCCCNC(=O)COCCOCCNC(=O)CC[C@H](NC(=O)CCCCCCCCCCCCCCCCC(=O)O)C(=O)O)NC(=O)[C@H](C)NC(=O)[C@H](C)NC(=O)[C@H](CCCNC(=N)N)NC(=O)[C@H](CO)NC(=O)[C@H](CC(=O)O)NC(=O)[C@H](CC(C)C)NC(=O)[C@](C)(Cc1ccccc1)NC(=O)[C@H](CCCCN)NC(=O)[C@H](CO)NC(=O)[C@@H](NC(=O)[C@H](CC(=O)O)NC(=O)[C@H](CO)NC(=O)[C@@H](NC(=O)[C@](C)(Cc1ccccc1)NC(=O)[C@H](CO)NC(=O)CNC(=O)[C@H](Cc1c[nH]cn1)NC(=O)C(C)(C)NC(=O)[C@@H](N)Cc1c[nH]cn1)[C@@H](C)O)C(C)C)C(C)C)C(=O)N[C@@H](C)C(=O)N[C@@H](CC(N)=O)C(=O)N[C@H](C(N)=O)[C@@H](C)O` [Peptide 262] (H-H[Aib]HGS[αMeF]TSDVSK[αMeF]LDSRAAK([AEEA-γGlu-C18 diacid])D[αMeF]VQ[Aib]IANT-NH2), for which the EC50 in test [1] worked out at 0.0117 nM. Besides, in test [2], the EC50 is 0.013 nM and the “% Relative Potency Ratio” value worked out at 1.8.

As for `CC[C@H](C)[C@H](NC(=O)C(C)(C)NC(=O)[C@H](CCC(N)=O)NC(=O)[C@@H](NC(=O)[C@](C)(Cc1ccccc1)NC(=O)[C@H](CC(=O)O)NC(=O)[C@H](CCCCNC(=O)CCOCCOCCOCCOCCNC(=O)CC[C@H](NC(=O)CC[C@H](NC(=O)CCCCCCCCCCCCCCCCC(=O)O)C(=O)O)C(=O)O)NC(=O)[C@H](C)NC(=O)[C@H](C)NC(=O)[C@H](CCCNC(=N)N)NC(=O)[C@H](CO)NC(=O)[C@H](CC(=O)O)NC(=O)[C@H](CC(C)C)NC(=O)[C@](C)(Cc1ccccc1)NC(=O)[C@H](CCCCN)NC(=O)[C@H](CO)NC(=O)[C@@H](NC(=O)[C@H](CC(=O)O)NC(=O)[C@H](CO)NC(=O)[C@@H](NC(=O)[C@](C)(Cc1ccccc1)NC(=O)[C@H](CO)NC(=O)CNC(=O)[C@H](Cc1c[nH]cn1)NC(=O)C(C)(C)NC(=O)[C@@H](N)Cc1c[nH]cn1)[C@@H](C)O)C(C)C)C(C)C)C(=O)N[C@@H](C)C(=O)N[C@@H](CC(N)=O)C(=O)N[C@H](C(N)=O)[C@@H](C)O` [Peptide 263] (H-H[Aib]HGS[αMeF]TSDVSK[αMeF]LDSRAAK([PEG4-γGlu-γGlu-C18 diacid])D[αMeF]VQ[Aib]IANT-NH2), the EC50 came to 0.0646 nM in test [1] and 0.0254 nM in test [2].

As for `CC[C@H](C)[C@H](NC(=O)C(C)(C)NC(=O)[C@H](CCC(N)=O)NC(=O)[C@@H](NC(=O)[C@](C)(Cc1ccccc1)NC(=O)[C@H](CC(=O)O)NC(=O)[C@H](CCCCNC(=O)CCOCCOCCNC(=O)CCOCCOCCNC(=O)CC[C@H](NC(=O)CC[C@H](NC(=O)CCCCCCCCCCCCCCCCCCC(=O)O)C(=O)O)C(=O)O)NC(=O)[C@H](C)NC(=O)[C@H](C)NC(=O)[C@H](CCCNC(=N)N)NC(=O)[C@H](CO)NC(=O)[C@H](CC(=O)O)NC(=O)[C@H](CC(C)C)NC(=O)[C@](C)(Cc1ccccc1)NC(=O)[C@H](CCCCN)NC(=O)[C@H](CO)NC(=O)[C@@H](NC(=O)[C@H](CC(=O)O)NC(=O)[C@H](CO)NC(=O)[C@@H](NC(=O)[C@](C)(Cc1ccccc1)NC(=O)[C@H](CO)NC(=O)CNC(=O)[C@H](Cc1c[nH]cn1)NC(=O)C(C)(C)NC(=O)[C@@H](N)Cc1c[nH]cn1)[C@@H](C)O)C(C)C)C(C)C)C(=O)N[C@@H](C)C(=O)N[C@@H](CC(N)=O)C(=O)N[C@H](C(N)=O)[C@@H](C)O` [Peptide 264] (H-H[Aib]HGS[αMeF]TSDVSK[αMeF]LDSRAAK([PEG2-PEG2-γGlu-γGlu-C20 diacid])D[αMeF]VQ[Aib]IANT-NH2), the EC50 in test [1] came to 0.297 nM. Further, in test [2], the EC50 worked out at 0.0695 nM and the “% Relative Potency Ratio” value is reported as 8.5.

For the compound `CC[C@H](C)[C@H](NC(=O)C(C)(C)NC(=O)[C@H](CCC(N)=O)NC(=O)[C@@H](NC(=O)[C@](C)(Cc1ccccc1)NC(=O)[C@H](CC(=O)O)NC(=O)[C@H](CCCCNC(=O)COCCOCCNC(=O)CC[C@H](NC(=O)COCCOCCNC(=O)CCCCCCCCCCCCCCCCCCC(=O)O)C(=O)O)NC(=O)[C@H](C)NC(=O)[C@H](C)NC(=O)[C@H](CCCNC(=N)N)NC(=O)[C@H](CO)NC(=O)[C@H](CC(=O)O)NC(=O)[C@H](CC(C)C)NC(=O)[C@](C)(Cc1ccccc1)NC(=O)[C@H](CCCCN)NC(=O)[C@H](CO)NC(=O)[C@@H](NC(=O)[C@H](CC(=O)O)NC(=O)[C@H](CO)NC(=O)[C@@H](NC(=O)[C@](C)(Cc1ccccc1)NC(=O)[C@H](CO)NC(=O)CNC(=O)[C@H](Cc1c[nH]cn1)NC(=O)C(C)(C)NC(=O)[C@@H](N)Cc1c[nH]cn1)[C@@H](C)O)C(C)C)C(C)C)C(=O)N[C@@H](C)C(=O)N[C@@H](CC(N)=O)C(=O)N[C@H](C(N)=O)[C@@H](C)O` [Peptide 265] (H-H[Aib]HGS[αMeF]TSDVSK[αMeF]LDSRAAK([AEEA-γGlu-AEEA-C20 diacid])D[αMeF]VQ[Aib]IANT-NH2), the concentration for a half-maximal effect (EC50) in test [1] came to 0.131 nM. Besides, in test [2], the EC50 was 0.0712 nM and the “% Relative Potency Ratio” value turned out to be 3.6.

Take `CC[C@H](C)[C@H](NC(=O)C(C)(C)NC(=O)[C@H](CCC(N)=O)NC(=O)[C@@H](NC(=O)[C@](C)(Cc1ccccc1)NC(=O)[C@H](CC(=O)O)NC(=O)[C@H](CCCCNC(=O)COCCOCCNC(=O)CC[C@H](NC(=O)COCCOCCNC(=O)CC[C@H](NC(=O)CCCCCCCCCCCCCCCCCCC(=O)O)C(=O)O)C(=O)O)NC(=O)[C@H](C)NC(=O)[C@H](C)NC(=O)[C@H](CCCNC(=N)N)NC(=O)[C@H](CO)NC(=O)[C@H](CC(=O)O)NC(=O)[C@H](CC(C)C)NC(=O)[C@](C)(Cc1ccccc1)NC(=O)[C@H](CCCCN)NC(=O)[C@H](CO)NC(=O)[C@@H](NC(=O)[C@H](CC(=O)O)NC(=O)[C@H](CO)NC(=O)[C@@H](NC(=O)[C@](C)(Cc1ccccc1)NC(=O)[C@H](CO)NC(=O)CNC(=O)[C@H](Cc1c[nH]cn1)NC(=O)C(C)(C)NC(=O)[C@@H](N)Cc1c[nH]cn1)[C@@H](C)O)C(C)C)C(C)C)C(=O)N[C@@H](C)C(=O)N[C@@H](CC(N)=O)C(=O)N[C@H](C(N)=O)[C@@H](C)O` [Peptide 266] (H-H[Aib]HGS[αMeF]TSDVSK[αMeF]LDSRAAK([AEEA-γGlu-AEEA-γGlu-C20 diacid])D[αMeF]VQ[Aib]IANT-NH2): in test [1], the EC50 worked out at 0.293 nM. In test [2], the EC50 was found to be 0.0665 nM and the “% Relative Potency Ratio” value turned out to be 8.7.

In the case of `CC[C@H](C)[C@H](NC(=O)C(C)(C)NC(=O)[C@H](CCC(N)=O)NC(=O)[C@@H](NC(=O)[C@](C)(Cc1ccccc1)NC(=O)[C@H](CC(=O)O)NC(=O)[C@H](CCCCNC(=O)CCOCCOCCOCCOCCNC(=O)CC[C@H](NC(=O)CCCCCCCCCCCCCCCCCCC(=O)O)C(=O)O)NC(=O)[C@H](C)NC(=O)[C@H](C)NC(=O)[C@H](CCCNC(=N)N)NC(=O)[C@H](CO)NC(=O)[C@H](CC(=O)O)NC(=O)[C@H](CC(C)C)NC(=O)[C@](C)(Cc1ccccc1)NC(=O)[C@H](CCCCN)NC(=O)[C@H](CO)NC(=O)[C@@H](NC(=O)[C@H](CC(=O)O)NC(=O)[C@H](CO)NC(=O)[C@@H](NC(=O)[C@](C)(Cc1ccccc1)NC(=O)[C@H](CO)NC(=O)CNC(=O)[C@H](Cc1c[nH]cn1)NC(=O)C(C)(C)NC(=O)[C@@H](N)Cc1c[nH]cn1)[C@@H](C)O)C(C)C)C(C)C)C(=O)N[C@@H](C)C(=O)N[C@@H](CC(N)=O)C(=O)N[C@H](C(N)=O)[C@@H](C)O` [Peptide 267] (H-H[Aib]HGS[αMeF]TSDVSK[αMeF]LDSRAAK([PEG4-γGlu-C20 diacid])D[αMeF]VQ[Aib]IANT-NH2), in test [1], the EC50 was found to be 0.128 nM. In test [2], the EC50 is 0.0656 nM and the “% Relative Potency Ratio” value stood at 3.9.

In the case of `CC[C@H](C)[C@H](NC(=O)C(C)(C)NC(=O)[C@H](CCC(N)=O)NC(=O)[C@@H](NC(=O)[C@](C)(Cc1ccccc1)NC(=O)[C@H](CC(=O)O)NC(=O)[C@H](CCCCNC(=O)COCCOCCNC(=O)CC[C@H](NC(=O)CCCCCCCCCCCCCCCCCCC(=O)O)C(=O)O)NC(=O)[C@H](C)NC(=O)[C@H](C)NC(=O)[C@H](CCCNC(=N)N)NC(=O)[C@H](CO)NC(=O)[C@H](CC(=O)O)NC(=O)[C@H](CC(C)C)NC(=O)[C@](C)(Cc1ccccc1)NC(=O)[C@H](CCCCN)NC(=O)[C@H](CO)NC(=O)[C@@H](NC(=O)[C@H](CC(=O)O)NC(=O)[C@H](CO)NC(=O)[C@@H](NC(=O)[C@](C)(Cc1ccccc1)NC(=O)[C@H](CO)NC(=O)CNC(=O)[C@H](Cc1c[nH]cn1)NC(=O)C(C)(C)NC(=O)[C@@H](N)Cc1c[nH]cn1)[C@@H](C)O)C(C)C)C(C)C)C(=O)N[C@@H](C)C(=O)N[C@@H](CC(N)=O)C(=O)N[C@H](C(N)=O)[C@@H](C)O` [Peptide 268] (H-H[Aib]HGS[αMeF]TSDVSK[αMeF]LDSRAAK([AEEA-γGlu-C20 diacid])D[αMeF]VQ[Aib]IANT-NH2; N-terminus assumed), the EC50 in test [1] turned out to be 0.0293 nM. Further, in test [2], the EC50 was found to be 0.0395 nM and the “% Relative Potency Ratio” value came out at 1.5.
